Measured values as given in patent EP3928779A1 (Chugai Seiyaku Kabushiki Kaisha, priority 2014, dated 2016).

Tested on: rat small-intestinal brush border membrane vesicles
Test: Inhibitory effect on 33PO4 uptake into rat small-intestinal brush border membrane vesicles (rapid filtration method)
Type: biochemical
Conditions: 33PO4 uptake into rat small-intestinal BBMVs; test compound 1 µM; reacted for 60 seconds
Outline: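 Uptake of ^33PO4 was measured by rapid filtration and liquid scintillation counting of filter-retained vesicles, after quenching with ice-cold 110 mM NaCl/1 mM KH2PO4/10 mM HEPES pH 7.5. Vesicles were brush border membranes from the upper small intestine of female Wistar rats aged 4–5 weeks.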

Structure (SMILES) | Rate of uptake inhibition (%) (1 µM)
C[C@]12CCCN1N(Cc1ccccc1F)C(=O)C(C(=O)Nc1ccc(C(F)(F)F)cc1-c1ccc(C(F)(F)F)nc1)=C2O [Example 200] | 80
C[C@]12CCCN1N(Cc1cccc(F)c1Cl)C(=O)C(C(=O)Nc1ccc(C(F)(F)F)cc1-c1ccc(C(F)(F)F)nc1)=C2O [Example 201] | 77
COc1cc(CN2C(=O)C(C(=O)Nc3ccc(C(F)(F)F)cc3-c3ccc(C(F)(F)F)nc3)=C(O)[C@@]3(C)CCCN23)cc(OC)c1 [Example 202] | 75
C[C@]12CCCN1N(Cc1c(F)cccc1F)C(=O)C(C(=O)Nc1ccc(C(F)(F)F)cc1-c1ccc(C(F)(F)F)nc1)=C2O [Example 203] | 91
C[C@]12CCCN1N(Cc1c(F)cccc1Cl)C(=O)C(C(=O)Nc1ccc(C(F)(F)F)cc1-c1ccc(C(F)(F)F)nc1)=C2O [Example 204] | 87
Cc1cccc(CN2C(=O)C(C(=O)Nc3ccc(C(F)(F)F)cc3-c3ccc(C(F)(F)F)nc3)=C(O)[C@@]3(C)CCCN23)c1F [Example 205] | 86
C[C@]12CCCN1N(Cc1cccc(F)c1)C(=O)C(C(=O)Nc1ccc(C(F)(F)F)cc1-c1ccc(C(F)(F)F)nc1)=C2O [Example 206] | 76
C[C@]12CCCN1N(Cc1ccccc1F)C(=O)C(C(=O)Nc1ccc(C(F)(F)F)cc1-c1cc(C(F)(F)F)ncn1)=C2O [Example 207] | 73
C[C@]12CCCN1N(Cc1ccc(F)cc1)C(=O)C(C(=O)Nc1ccc(C(F)(F)F)cc1-c1cc(C(F)(F)F)ncn1)=C2O [Example 208] | 90
C[C@]12CCCN1N(Cc1cccc(Cl)c1F)C(=O)C(C(=O)Nc1ccc(C(F)(F)F)cc1-c1cc(C(F)(F)F)ncn1)=C2O [Example 209] | 76
C[C@]12CCCN1N(Cc1c(F)cccc1Cl)C(=O)C(C(=O)Nc1ccc(C(F)(F)F)cc1-c1cc(C(F)(F)F)ncn1)=C2O [Example 210] | 71
C[C@]12CCCN1N(Cc1cc(Cl)ccc1F)C(=O)C(C(=O)Nc1ccc(C(F)(F)F)cc1-c1cc(C(F)(F)F)ncn1)=C2O [Example 211] | 72
C[C@]12CCCN1N(Cc1c(F)cccc1F)C(=O)C(C(=O)Nc1ccc(C(F)(F)F)cc1-c1cc(C(F)(F)F)ncn1)=C2O [Example 212] | 98
C[C@]12CCCN1N(Cc1cc(F)cc(F)c1)C(=O)C(C(=O)Nc1ccc(C(F)(F)F)cc1-c1cc(C(F)(F)F)ncn1)=C2O [Example 213] | 79
C[C@]12CCCN1N(Cc1ccc(F)c(F)c1)C(=O)C(C(=O)Nc1ccc(C(F)(F)F)cc1-c1cc(C(F)(F)F)ncn1)=C2O [Example 214] | 91
Cc1cccc(CN2C(=O)C(C(=O)Nc3ccc(C(F)(F)F)cc3-c3cc(C(F)(F)F)ncn3)=C(O)[C@@]3(C)CCCN23)c1F [Example 215] | 86
C[C@]12CCCN1N(Cc1ccccc1C#N)C(=O)C(C(=O)Nc1cc(F)c(Br)c(F)c1)=C2O [Example 218] | 82
C[C@]12CCCN1N(Cc1ccccc1Cl)C(=O)C(C(=O)Nc1cc(F)c(Br)c(F)c1)=C2O [Example 219] | 95
C[C@]12CCCN1N(Cc1cccc(C#N)c1)C(=O)C(C(=O)Nc1cc(F)c(Br)c(F)c1)=C2O [Example 220] | 96
C[C@]12CCCN1N(Cc1cccc(Cl)c1)C(=O)C(C(=O)Nc1cc(F)c(Br)c(F)c1)=C2O [Example 221] | 82
C[C@]12CCCN1N(Cc1ccc(C#N)cc1)C(=O)C(C(=O)Nc1cc(F)c(Br)c(F)c1)=C2O [Example 222] | 97
C[C@]12CCCN1N(Cc1ccc(Cl)cc1)C(=O)C(C(=O)Nc1cc(F)c(Br)c(F)c1)=C2O [Example 223] | 77
C[C@]12CCCN1N(CCCC(F)(F)F)C(=O)C(C(=O)Nc1ccc(C(F)(F)F)cc1-c1cc(C(F)(F)F)ncn1)=C2O [Example 234, (4aR)-4-Hydroxy-4a-methyl-2-oxo-1-(4,4,4-trifluorobutyl)-N-[4-(trifluoromethyl)-2-[6-(trifluoromethyl)pyrimidin-4-yl]henyl]-6,7-dihydro-5H-pyrrolo[1,2-b]pyridazine-3-carboxamide] | 73
CCOC(=O)CCCCCCN1C(=O)C(C(=O)Nc2ccc(C(F)(F)F)cc2-c2ccc(C(F)(F)F)nc2)=C(O)[C@@]2(C)CCCN12 [Example 235, Ethyl 7-[(4aR)-4-hydroxy-4a-methyl-2-oxo-3-[[4-(trinuoromethyl)-2-[6-(trifluoromethyl)pyridin-3-yl]phenyl]carbamoyl]-6,7-dihydro-5H-pyrrolo[1,2-b]pyridazin-1-yl]heptanoate] | 65
COCCOCCOCCCCCCCCN1C(=O)C(C(=O)Nc2ccc(C(F)(F)F)cc2-c2cc(C(F)(F)F)ncn2)=C(O)[C@@]2(C)CCCN12 [Example 236, (4aR)-4-Hydroxy-1-[8-[2-(2-methoxyethoxy)ethoxy]octyl]-4a-methyl-2-oxo-N-[4-(trifluoromethyl)-2-[6-(trifluoromethyl)pyrimidine-4-yl]phenyl]-6,7-dihydro-5H-pyrrolo[1,2-b]pyridazine-3-carboxamide] | 60
CN1[C@@H](C(C)(C)C)C(O)=C(C(=O)Nc2ccc(Cl)cc2-c2cc(C(F)(F)F)ncn2)C(=O)N1Cc1cccc(F)c1F [Example 237] | 51

Structure (SMILES) | Rate of uptake inhibition (%) (1 µM)
CN1[C@@H](C(C)(C)C)C(O)=C(C(=O)Nc2ccc(C(F)(F)F)cc2-c2ccc(C(F)(F)F)nc2)C(=O)N1Cc1cccc(F)c1F [Example 238] | 47
CN1[C@@H](C(C)(C)C)C(O)=C(C(=O)Nc2ccc(Cl)cc2-c2ccc(C(F)(F)F)nc2)C(=O)N1Cc1cccc(F)c1F [Example 239] | 48
CN1[C@@H](C(C)(C)C)C(O)=C(C(=O)Nc2cc(F)c(Br)c(F)c2)C(=O)N1Cc1cccc(F)c1F [Example 240] | 72
Cc1nc(NC(=O)C2=C(O)[C@H](C(C)(C)C)N(C)N(Cc3cccc(F)c3F)C2=O)ccc1Br [Example 241] | 86
CN1[C@@H](C(C)(C)C)C(O)=C(C(=O)Nc2ccc(Br)c(C(F)(F)F)n2)C(=O)N1Cc1cccc(F)c1F [Example 242] | 69
CN1[C@@H](C(C)(C)C)C(O)=C(C(=O)Nc2ccc(Br)c(C(F)(F)F)c2)C(=O)N1Cc1cccc(F)c1F [Example 243] | 63
CN1[C@@H](C(C)(C)C)C(O)=C(C(=O)Nc2cccc(C(F)(F)F)n2)C(=O)N1Cc1cccc(F)c1F [Example 244] | 71
CCN1[C@@H](C(C)(C)C)C(O)=C(C(=O)Nc2ccc(Cl)cc2-c2ccc(C(F)(F)F)nc2)C(=O)N1Cc1cccc(F)c1F [Example 245] | 40
CCN1[C@@H](C(C)(C)C)C(O)=C(C(=O)Nc2cc(F)c(Br)c(F)c2)C(=O)N1Cc1cccc(F)c1F [Example 246] | 52
CC(C)(C)[C@H]1C(O)=C(C(=O)Nc2ccc(Cl)cc2-c2ccc(C(F)(F)F)nc2)C(=O)N(Cc2cccc(F)c2F)N1CC(F)(F)F [Example 247] | 51
CC(C)(C)[C@H]1C(O)=C(C(=O)Nc2cc(F)c(Br)c(F)c2)C(=O)N(Cc2cccc(F)c2F)N1CC(F)(F)F [Example 248] | 45
CC(C)[C@@H]1C(O)=C(C(=O)Nc2ccc(C(F)(F)F)cc2-c2cc(C(F)(F)F)ncn2)C(=O)N(Cc2cccc(F)c2F)N1C [Example 249] | 50
CC(C)[C@@H]1C(O)=C(C(=O)Nc2ccc(Cl)cc2-c2cc(C(F)(F)F)ncn2)C(=O)N(Cc2cccc(F)c2F)N1C [Example 250] | 52
CC(C)[C@@H]1C(O)=C(C(=O)Nc2ccc(Cl)cc2-c2ccc(C(F)(F)F)nc2)C(=O)N(Cc2cccc(F)c2F)N1C [Example 251] | 43
CC(C)[C@H]1C(O)=C(C(=O)Nc2ccc(C(F)(F)F)cc2-c2cc(C(F)(F)F)ncn2)C(=O)N(Cc2cccc(F)c2F)N1C [Example 252] | 53
CC(C)[C@H]1C(O)=C(C(=O)Nc2ccc(C(F)(F)F)cc2-c2ccc(C(F)(F)F)nc2)C(=O)N(Cc2cccc(F)c2F)N1C [Example 253] | 40
CC(C)[C@H]1C(O)=C(C(=O)Nc2cc(F)c(Br)c(F)c2)C(=O)N(Cc2cccc(F)c2F)N1C [Example 254] | 58
CN1N(Cc2cccc(F)c2F)C(=O)C(C(=O)Nc2ccc(Cl)cc2-c2cc(C(F)(F)F)ncn2)=C(O)C12CCC2 [Example 255] | 80
CN1N(Cc2cccc(F)c2F)C(=O)C(C(=O)Nc2ccc(Cl)cc2-c2ccc(C(F)(F)F)nc2)=C(O)C12CCC2 [Example 256] | 79
CN1N(Cc2cccc(F)c2F)C(=O)C(C(=O)Nc2cc(F)c(Br)c(F)c2)=C(O)C12CCC2 [Example 257] | 71
CN1N(Cc2cccc(F)c2F)C(=O)C(C(=O)Nc2ccc(Br)c(C(F)(F)F)n2)=C(O)C12CCC2 [Example 258] | 87
Cc1nc(NC(=O)C2=C(O)C3(CCC3)N(C)N(Cc3cccc(F)c3F)C2=O)ccc1Br [Example 259] | 52
CN1N(Cc2cccc(F)c2F)C(=O)C(C(=O)Nc2ccc(C(F)(F)F)cc2-c2cc(C(F)(F)F)ncn2)=C(O)C12CCCC2 [Example 260] | 70
CN1N(Cc2cccc(F)c2F)C(=O)C(C(=O)Nc2ccc(Cl)cc2-c2cc(C(F)(F)F)ncn2)=C(O)C12CCCC2 [Example 261] | 77
Cc1nc(NC(=O)C2=C(O)C3(CCCC3)N(C)N(Cc3cccc(F)c3F)C2=O)ccc1Br [Example 262] | 43
CN1N(Cc2cccc(F)c2F)C(=O)C(C(=O)Nc2ccc(Br)c(C(F)(F)F)n2)=C(O)C12CCCC2 [Example 263] | 66
